According to patent US9603892B2, “Peptide compound for inhibiting restenosis and promoting re-endothelialization and method for preparing the same” (Chonnam National University Hospital, priority 2014, dated 2017):

Tested on: vascular smooth muscle cell (SMC)
Test: Effect on proliferation of vascular smooth muscle cell (SMC), XTT assay
Type: cell-based
Conditions: 1 uM; XTT at 1, 4 and 7 days; versus untreated control, which grew until 7 days; FIG. 1
Procedure: As cells used in a cell culture, the vascular smooth muscle cell (SMC) which is a smooth muscle cell, and the human umbilical vein endothelial cell (HUVEC) which is the cell for promoting vascular re-endothelialization were purchased from Korea Cell Line Bank, respectively. The cell culture was performed by culturing the vascular smooth muscle cell (SMC) and the human umbilical vein endothelial cell (HUVEC) in Dulbecoco's modified eagle medium (DMEM) with 10% fetal bovine serum (FBS) under conditions of 37° C. and 5% CO2. […]
(§1) 5×10^4 of SMC cells cultured according to Example 2 were cultured in the 24-well cell culture plate and then treated with 1 uM of the peptide compound prepared by Example 2 (hereinafter, referred to as ‘EVR-P’). […] After the reaction, 200 ul of the culture medium was transferred from each well to a 96 well cell culture dish, and degree of color change was measured from absorbance at a 450 nm wavelength by a spectroscopy.
as §1, with “the known Everolimus (EVR)(LC Laboratories).” for “the peptide compound prepared by Example 2 (hereinafter, referred to as ‘EVR-P’).”, “to the” for “to a”

## CO[C@H]1C[C@@H]2CC[C@@H](C)[C@@](O)(O2)C(=O)C(=O)N2CCCC[C@H]2C(=O)O[C@H]([C@H](C)C[C@@H]2CC[C@@H](OCCO)[C@H](OC)C2)CC(=O)[C@H](C)/C=C(\C)[C@@H](O)[C@@H](OC)C(=O)[C@H](C)C[C@H](C)/C=C/C=C/C=C/1C [EVR, Everolimus]
  SMC cell proliferation (XTT, absorbance at 450 nm): cell proliferation was inhibited
